Values quoted from earlier work in patent US6762172B1, “Water-stabilized organosilane compounds and methods for using the same” (Nova Biogenetics, Inc., priority 1997, dated 2004).

Details: mixture with water, non-stabilized

For `CCCCCCCCCCCCCCCCCC[N+](C)(C)CCC[Si](OC)(OC)OC.[Cl-]` [3-(trimethoxysilyl)propyl-dimethyloctadecyl ammonium chloride], the “begins to lose effectiveness” value is given as “four to eight”.
